Values joined by “and” are separate entries in the source; they are usually repeats but may differ in a detail not shown here. Equal entries are not always repeated. Structures can show the parent of a compound that is named as a salt. Where two headings read alike, the source gives them in different places.

A short description of one data set: in vitro. The note with it: human.
For data set [1], the system named is SARS-CoV-2. The experiment in a line: microbe, parasite or virus in culture.
The subject of data set [2] is SARS-CoV-2. The note with it: compared with CC50.
The subject of data set [3] is SARS-CoV-2. The note with it: Vero cells; cited from earlier work.
The test system of data set [4] is SARS-CoV-2. The note with it: Calu-3 cells; cited from earlier work.
The target of data set [5] is SARS-CoV-2 Spike RBD protein (Severe acute respiratory syndrome coronavirus 2, UniProt P0DTC2). The experiment in a line: Microscale thermophoresis binding to Spike RBD. The settings on record: MST, 5 nM labeled Spike RBD, 23°C, quadruplicate.
Data set [6] has as its system SARS-CoV-2. Put plainly: Vero 76 reduction of virus-induced cytopathic effect. The note with it: Severe acute respiratory syndrome coronavirus 2, Vero 76, Vero 76. It counts as cell-based.
A further data set is described as follows: Calu3 toxicity. The format is cell-based. The note with it: human, Calu3 cells infected with SARS-CoV-2.
Data set [7] concerns SARS-CoV-2 (isolate USA WA1/2020). The experiment in a line: microbe, parasite or virus in culture. The format is cell-based. The settings on record: Severe acute respiratory syndrome coronavirus 2, Calu-3, 48 h.
The nature of data set [8]: Vero 76 cytotoxicity in uninfected toxicity cultures. The settings on record: African green monkey, CC50, Vero 76.
Data set [9] relates to SARS-CoV-2. The settings on record: Vero E6 cells; cited from earlier work.
[10] abbreviates: Severe acute respiratory syndrome coronavirus 2, Caco-2, 72 h.
Where [11] appears, read: Neutral Red (Cytopathic effect/Toxicity).
The mark [12] stands for this setting: Visual (Cytopathic effect/Toxicity).

Take `C=C[C@]1(C)C[C@@H](OC(=O)CSCCN(CC)CC)[C@]2(C)[C@H](C)CC[C@]3(CCC(=O)[C@H]32)[C@@H](C)[C@@H]1O` [Tiamulin fumarate]: in “in vitro”, the CC50 at 3 days is above 100 µM. In addition, the EC90 in the data set on SARS-CoV-2 [1] (setting [10]) is 65 µM.
Turning to `COc1cc2c(cc1OC)C1CC(=O)C(CC(C)C)CN1CC2` (centres unmarked) [Tetrabenazine], the “activity against SARS-CoV-2 in Caco-2 cells (in words)” value in the data set with SARS-CoV-2 [2] was “inactive”. For the same compound, in the data set “in vitro”, the CC50 at 3 days is above 100 µM. Further, the EC90 in the data set on SARS-CoV-2 [1] (Severe acute respiratory syndrome coronavirus 2, Caco-2) is above 100 µM.
On to `Cc1cn(-c2cc(NC(=O)c3ccc(C)c(Nc4nccc(-c5cccnc5)n4)c3)cc(C(F)(F)F)c2)cn1` [Nilotinib], for which, in the data set with SARS-CoV-2 [3], the potency result is “sub-micromolar”.
Regarding `C[C@H]1[C@H](OC(=O)CCC(=O)O)O[C@@H]2O[C@@]3(C)CC[C@H]4[C@H](C)CC[C@@H]1[C@@]24OO3` [Artesunate], in the data set with SARS-CoV-2 [4], the IC50 was 1.76 µM.
On to `CCCCN(CCCC)CC(O)c1cc(Cl)cc2c1-c1ccc(Cl)cc1/C2=C/c1ccc(Cl)cc1` (centres unmarked) [Lumefantrine], for which the Kd in [5] is 0.259 µM and ~0.25 µM. Besides, the EC50 is 54 µM in the data set on SARS-CoV-2 [6] (setting [11]), above 60 µM in the data set on SARS-CoV-2 [6] (setting [12]) and 23.2 µM in the data set on SARS-CoV-2 [9]. Moreover, the CC50 at 48 h in the data set “Calu3 toxicity” is above 20 µM. In addition, the IC50 in data set [7] is above 20 µM. In “in vitro”, this compound had a CC50 at 3 days of 10 µM. Also, the values for the CC50 in data set [8] (setting [11]) and in data set [8] (setting [12]) were 177 µM and above 60 µM, respectively. Besides, in the data set on SARS-CoV-2 [1] (setting [10]), it took 10 µM to reach the 90% level (EC90).
Turning to `CCCC1O[C@@H]2C[C@H]3[C@@H]4CCC5=CC(=O)C=C[C@]5(C)[C@H]4[C@@H](O)C[C@]3(C)[C@]2(C(=O)CO)O1` (some centres unmarked) [Budesonide], the “activity against SARS-CoV-2 in Caco-2 cells (in words)” value in the data set on SARS-CoV-2 [2] is “no activity”. The same compound gave a CC50 at 3 days in “in vitro” of 10 µM. Moreover, the EC90 in the data set on SARS-CoV-2 [1] (setting [10]) was above 10 µM.

As usually defined, the EC90 is the concentration needed for an effect of 90%. Broadly, the IC50 is the concentration that inhibits the measured activity by half. The term Kd denotes the concentration at which binding is half-saturated. Read a high Kd as weaker binding. Broadly, the EC50 is the concentration at which the effect is half-maximal.

The values above are taken from paper PMC8574161 (Journal of chemical information and modeling, 2021).
